Measurements as given in US5773423A (priority 1994, dated 1998).
Where two headings read alike, the source gives them in different places.

Biological target: T1, A2 receptors from rat striatal membranes (Rattus norvegicus, UniProt P30543)
T1 construct: Rat cerebral cortical and striatal membranes were prepared; from tissue; host or cells: rat striatal membranes
Assay: Radioligand binding at A2 (A2a) receptors, displacement of [3H]CGS 21680 (or [3H]NECA with 50 nM CPA) from rat striatal membranes
Conditions: for Ki: rat striatal membranes, displacement of [3H]CGS 21680 (or [3H]NECA + 50 nM CPA), read-out: A2 affinity Ki

[1] = read-out: A2 percent displacement
[2] = read-out: percent displacement of radioligand at A2

T1 sequence (P30543 whole entry): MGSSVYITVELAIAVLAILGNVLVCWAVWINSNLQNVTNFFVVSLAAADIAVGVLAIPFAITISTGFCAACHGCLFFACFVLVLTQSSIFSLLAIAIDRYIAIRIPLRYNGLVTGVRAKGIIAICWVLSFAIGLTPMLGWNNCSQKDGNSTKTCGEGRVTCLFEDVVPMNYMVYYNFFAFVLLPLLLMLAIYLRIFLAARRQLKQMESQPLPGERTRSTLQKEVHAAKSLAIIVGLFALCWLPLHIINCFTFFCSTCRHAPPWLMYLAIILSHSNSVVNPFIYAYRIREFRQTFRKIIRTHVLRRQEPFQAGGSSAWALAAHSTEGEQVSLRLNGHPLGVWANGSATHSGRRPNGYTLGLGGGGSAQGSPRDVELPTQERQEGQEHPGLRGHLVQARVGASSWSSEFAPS

Ki [nM]	SMILES	further results
–	CCCCn1c(=O)c2c(ncn2[C@@H]2O[C@H](C(N)=O)[C@@H](O)[C@H]2O)n(CCCC)c1=O	A2a affinity decrease vs 1,3-di-n-butylxanthine-7-β-D-ribofuranoside: 2.8 fold
–	CCCCCC[C@H]([C@H](C)O)n1cnc2c(N)ncnc21 (relative stereo) [Compound 96, erythro-9-(2-hydroxy-3-nonyl)adenine, reference compound]	inhibition at 100 µM (at 100 μM, read-out: A2 percent displacement): 59.6 ± 2.8%
55 ± 6	O=C(NC1CC1)[C@H]1O[C@@H](n2cnc3c(NCc4ccccc4)ncnc32)[C@H](O)[C@@H]1O [Compound 24, N^6-benzyladenosine-5'-N-cyclopropyluronamide]	–
59800	Nc1nccc2c1ncn2[C@@H]1O[C@H](CO)[C@@H](O)[C@H]1O [Compound 32, 3-deazaadenosine, reference compound]	–
101 ± 19	CCNC(=O)[C@H]1O[C@@H](n2cnc3c(N)[n+]([O-])cnc32)[C@H](O)[C@@H]1O [Compound 35, adenosine-5'-N-ethyluronamide-N^1-oxide]	–
441 ± 45	CNC(=O)[C@H]1O[C@@H](n2cnc3c(NCc4cccc([N+](=O)[O-])c4)ncnc32)[C@H](O)[C@@H]1O [Compound 43, N^6-(3-nitrobenzyl)-NMCA]	–
794 ± 118	CNC(=O)[C@H]1O[C@@H](n2cnc3c(NCc4cccc(N)c4)ncnc32)[C@H](O)[C@@H]1O [Compound 44, N^6-(3-aminobenzyl)adenosine-5'-N-methyluronamide]	–
574 ± 49	CNC(=O)[C@H]1O[C@@H](n2cnc3c(NCc4cccc(C(F)(F)F)c4)ncnc32)[C@H](O)[C@@H]1O [Compound 47, N^6-(3-trifluoromethylbenzyl)adenosine-5'-N-methyluronamide]	–
2730	CNC(=O)[C@H]1O[C@@H](n2cnc3c(NCc4ccc(Cl)cc4)ncnc32)[C@H](O)[C@@H]1O [Compound 48, N^6-(4-chlorobenzyl)-NMCA]	–
2460	CNC(=O)[C@H]1O[C@@H](n2cnc3c(NCc4ccc(Br)cc4)ncnc32)[C@H](O)[C@@H]1O [Compound 49, N^6-(4-bromobenzyl)-NMCA]	–
316 ± 43	CNC(=O)[C@H]1O[C@@H](n2cnc3c(NCc4ccc(N)c(I)c4)ncnc32)[C@H](O)[C@@H]1O [Compound 51, N^6-(4-amino-3-iodobenzyl)adenosine-5'-N-methyluronamide]	displacement of radioligand from A2a (in words): not A1 or A2a receptors
1650	CCNC(=O)[C@H]1O[C@@H](n2cnc3c(N[C@@H](C)c4ccccc4)ncnc32)[C@H](O)[C@@H]1O [Compound 56, N^6 -(S-phenylethyl)-NECA]	–
–	Cn1c(=O)[nH]c(=O)c2[nH]cnc21 [Compound 100, 3-methylX, reference compound]	inhibition at 100 µM [1]: 38 ± 0.9%
2930	CCCCn1c(=O)c2[nH]cnc2n(CCCC)c1=O [Compound 109, 1,3-di-n-butyl-xanthine, reference compound]	–
–	O=c1c2[nH]cnc2n(Cc2ccccc2)c(=O)n1Cc1ccccc1 [Compound 111, 1,3-dibenzylX, reference compound]	inhibition at 10 µM (at 10 μM, read-out: A2 percent displacement): 3.61 ± 0.94%
–	Cn1c(=O)c2ncn(C)c2n(C)c1=O [Compound 113, 1,3,9-trimethylX, reference compound]	inhibition at 100 µM [1]: 14.4 ± 5.7%
17400	Cn1c(=O)c2c(ncn2CCO)n(C)c1=O [Compound 116, 7-β-hydroxyethylT, reference compound]	–
–	CCCCCCn1c(=O)c2c(ncn2[C@@H]2O[C@H](CO)[C@@H](O)[C@H]2O)n(CCCCCC)c1=O [Example 64, 1,3-di-n-hexylxanthine-7-β-D-ribofuranoside]	inhibition at 10 µM [2]: 7.8%; inhibition at 100 µM [2]: 69 ± 2%
–	CCCCCn1c(=O)c2c(ncn2[C@@H]2O[C@H](C(=O)NC)[C@@H](O)[C@H]2O)n(CCCCC)c1=O [Example 68, N-methyl 1,3-di-n-pentylxanthine-7-β-D-ribofuronamide]	inhibition at 100 µM [2]: 2%
–	CCCCCCn1c(=O)c2c(ncn2[C@@H]2O[C@H](C(=O)NC)[C@@H](O)[C@H]2O)n(CCCCCC)c1=O [Example 69, N-methyl 1,3-di-n-hexylxanthine-7-β-D-ribofuronamide]	inhibition at 100 µM (Table 4, at 10^-4 M, read-out: percent displacement of radioligand at A2): 0%
